Several values for one entry are separate records, joined by “and”; a condition that tells them apart may be missing. Equal entries are not always repeated. Where two headings read alike, the source gives them in different places.
Tests used:
[1] = system: recurrent or persistent ovarian cancer; settings: single agent 100 mg daily; ref Personal communication, Dr. Russell J. Schilder; cited from earlier work
[2] = cited from earlier work
solid tumors = settings: single agent dasatinib; cited from earlier work
[3] = system: advanced or recurrent epithelial ovarian, peritoneal, or tubal cancer; assay: Response
[4] = Pharmacokinetics of dasatinib in plasma; settings: for AUC: 100 mg, AUC(TAU), TAU = 24 h
[5] = Phase I 3+3 dose escalation: DLT, MTD, recommended phase II dose
[6] = all patients (N=20), all cycles
[7] = cohort 1 (dasatinib 100 mg), n patients
[8] = cohort 2 (dasatinib 120 mg), n patients
[9] = cohort 3 (dasatinib 150 mg), n patients
[10] = dasatinib 100 mg qd + paclitaxel + carboplatin, N=6, all cycles, patients (%)
[11] = dasatinib 120 mg qd + paclitaxel + carboplatin, N=3, all cycles, patients (%)
[12] = paclitaxel and dasatinib, Cycle 2 Day 1, N=18
[13] = with paclitaxel (Cycle 2 Day 1) vs dasatinib alone (Cycle 1 Day 15)

Cc1nc(Nc2ncc(C(=O)Nc3c(C)cccc3Cl)s2)cc(N2CCN(CCO)CC2)n1 [dasatinib, N-(2-chloro-6-methyl-phenyl)-2-(6-(4-(2-hydroxyethyl)-piperazin-1-yl)-2-methylpyrimidin-4-ylamino)thiazole-5-carboxamide]
dose modifications secondary to hematologic toxicity (46/95 dose modifications): 48%
patients reporting fatigue (any grade) (all patients): Ninety
fatigue grade 3 [6]: 10%
thrombocytopenia grade 3–4 [6]: 35%
patients requiring dose modifications (cohort 1 (dasatinib 100 mg)): 100%
urinary tract infection (cohort 1 (dasatinib 100 mg)): 1
grade 1 hyponatremia (cohort 1 (dasatinib 100 mg), n): 1
grade 1 sinus pain (cohort 1 (dasatinib 100 mg), n): 9 Pain toxicity also included the following: (1) grade 2 neuralgia (n=1), grade 1 sinus pain (n=1), and grade 1 throat pain (n=1) in cohort 1; and (2) grade 1 back pain (n=1) and grade 1 extremity pain (n=1) in cohort 2.
grade 1 throat pain (cohort 1 (dasatinib 100 mg), n): 9 Pain toxicity also included the following: (1) grade 2 neuralgia (n=1), grade 1 sinus pain (n=1), and grade 1 throat pain (n=1) in cohort 1; and (2) grade 1 back pain (n=1) and grade 1 extremity pain (n=1) in cohort 2.
grade 2 neuralgia (cohort 1 (dasatinib 100 mg), n): 9 Pain toxicity also included the following: (1) grade 2 neuralgia (n=1), grade 1 sinus pain (n=1), and grade 1 throat pain (n=1) in cohort 1; and (2) grade 1 back pain (n=1) and grade 1 extremity pain (n=1) in cohort 2.
pulmonary toxicity, grade 1 other unspecified etiology (cohort 1 (dasatinib 100 mg), n): 10 Pulmonary toxicity also included the following: (1) grade 1 other unspecified etiology (n=1) in cohort 1; and (2) grade 2 hypoxia (n=1 in cohort 2.
gastrointestinal toxicity, other unspecified etiologies, grade 1 [7]: 5 Gastrointestinal toxicity included other unspecified etiologies: (1) grade 1 (n=1) and grade 2 (n=1) in cohort 1; (2) grade 1 (n=1) in cohort 2; and (3) grade 1 (n=1) in cohort 3.
gastrointestinal toxicity, other unspecified etiologies, grade 2 [7]: 5 Gastrointestinal toxicity included other unspecified etiologies: (1) grade 1 (n=1) and grade 2 (n=1) in cohort 1; (2) grade 1 (n=1) in cohort 2; and (3) grade 1 (n=1) in cohort 3.
grade 1 dehydration [7]: 4 Gastrointestinal toxicity also included the following: (1) grade 1 dehydration (n=1) in cohort 1; (2) grade 1 distension (n=1), grade 1 xerostomia (n=1), grade 1 gastritis (n=1) in cohort 2; and (3) grade 1 xerostomia (n=1) in cohort 3.
grade 1 joint-function toxicity [7]: 1 Additional toxicities in cohort 1 included musculoskeletal toxicity characterized by grade 1 joint-function toxicity (n=1) and grade 1 muscular complaints (n=1). The grade 3 myalgia is reported under pain.
grade 1 muscular complaints [7]: 1 Additional toxicities in cohort 1 included musculoskeletal toxicity characterized by grade 1 joint-function toxicity (n=1) and grade 1 muscular complaints (n=1). The grade 3 myalgia is reported under pain.
cases of grade 1 somnolence/depressed level of consciousness (cohort 2 (dasatinib 120 mg)): 8 Neurologic toxicity included one case of grade 1 somnolence/depressed level of consciousness in cohort 2.
patients requiring dose modifications (cohort 2 (dasatinib 120 mg)): 67%
grade 1 back pain (cohort 2 (dasatinib 120 mg), n): 9 Pain toxicity also included the following: (1) grade 2 neuralgia (n=1), grade 1 sinus pain (n=1), and grade 1 throat pain (n=1) in cohort 1; and (2) grade 1 back pain (n=1) and grade 1 extremity pain (n=1) in cohort 2.
grade 1 extremity pain (cohort 2 (dasatinib 120 mg), n): 9 Pain toxicity also included the following: (1) grade 2 neuralgia (n=1), grade 1 sinus pain (n=1), and grade 1 throat pain (n=1) in cohort 1; and (2) grade 1 back pain (n=1) and grade 1 extremity pain (n=1) in cohort 2.
grade 1 hypokalemia (cohort 2 (dasatinib 120 mg), n): 1
grade 1 hypomagnesemia (cohort 2 (dasatinib 120 mg), n): 1
grade 2 hypoxia (cohort 2 (dasatinib 120 mg), n): 10 Pulmonary toxicity also included the following: (1) grade 1 other unspecified etiology (n=1) in cohort 1; and (2) grade 2 hypoxia (n=1 in cohort 2.
gastrointestinal toxicity, other unspecified etiologies, grade 1 [8]: 5 Gastrointestinal toxicity included other unspecified etiologies: (1) grade 1 (n=1) and grade 2 (n=1) in cohort 1; (2) grade 1 (n=1) in cohort 2; and (3) grade 1 (n=1) in cohort 3.
grade 1 distension [8]: 4 Gastrointestinal toxicity also included the following: (1) grade 1 dehydration (n=1) in cohort 1; (2) grade 1 distension (n=1), grade 1 xerostomia (n=1), grade 1 gastritis (n=1) in cohort 2; and (3) grade 1 xerostomia (n=1) in cohort 3.
grade 1 gastritis [8]: 4 Gastrointestinal toxicity also included the following: (1) grade 1 dehydration (n=1) in cohort 1; (2) grade 1 distension (n=1), grade 1 xerostomia (n=1), grade 1 gastritis (n=1) in cohort 2; and (3) grade 1 xerostomia (n=1) in cohort 3.
grade 1 xerostomia [8]: 4 Gastrointestinal toxicity also included the following: (1) grade 1 dehydration (n=1) in cohort 1; (2) grade 1 distension (n=1), grade 1 xerostomia (n=1), grade 1 gastritis (n=1) in cohort 2; and (3) grade 1 xerostomia (n=1) in cohort 3.
patients requiring dose modifications (cohort 3 (dasatinib 150 mg)): 91%
grade 1 elevated alkaline phosphatase (cohort 3 (dasatinib 150 mg), n): 7 Metabolic toxicities also included the following: grade 1 elevated transaminases (n=1), grade 1 elevated alkaline phosphatase (n=1), and proteinuria (grade 1 (n=1), grade 2 (n=1)) in cohort 3.
grade 1 elevated transaminases (cohort 3 (dasatinib 150 mg), n): 7 Metabolic toxicities also included the following: grade 1 elevated transaminases (n=1), grade 1 elevated alkaline phosphatase (n=1), and proteinuria (grade 1 (n=1), grade 2 (n=1)) in cohort 3.
grade 1 hyponatremia (cohort 3 (dasatinib 150 mg), n): 2
grade 2 hypocalcemia (cohort 3 (dasatinib 150 mg), n): 1
grade 3 hypercalcemia (cohort 3 (dasatinib 150 mg), n): 1
hypokalemia grade 1 (cohort 3 (dasatinib 150 mg), n): 3
hypokalemia grade 4 (cohort 3 (dasatinib 150 mg), n): 1
hypomagnesemia grade 1 (cohort 3 (dasatinib 150 mg), n): 2
hypomagnesemia grade 2 (cohort 3 (dasatinib 150 mg), n): 1
hypophosphatemia grade 2 (cohort 3 (dasatinib 150 mg), n): 2
hypophosphatemia grade 3 (cohort 3 (dasatinib 150 mg), n): 1
proteinuria grade 1 (cohort 3 (dasatinib 150 mg), n): 7 Metabolic toxicities also included the following: grade 1 elevated transaminases (n=1), grade 1 elevated alkaline phosphatase (n=1), and proteinuria (grade 1 (n=1), grade 2 (n=1)) in cohort 3.
proteinuria grade 2 (cohort 3 (dasatinib 150 mg), n): 7 Metabolic toxicities also included the following: grade 1 elevated transaminases (n=1), grade 1 elevated alkaline phosphatase (n=1), and proteinuria (grade 1 (n=1), grade 2 (n=1)) in cohort 3.
gastrointestinal toxicity, other unspecified etiologies, grade 1 [9]: 5 Gastrointestinal toxicity included other unspecified etiologies: (1) grade 1 (n=1) and grade 2 (n=1) in cohort 1; (2) grade 1 (n=1) in cohort 2; and (3) grade 1 (n=1) in cohort 3.
grade 1 epitaxis [9]: 1
grade 1 facial and neck edema [9]: 1
grade 1 weight loss [9]: 2
grade 1 xerostomia [9]: 4 Gastrointestinal toxicity also included the following: (1) grade 1 dehydration (n=1) in cohort 1; (2) grade 1 distension (n=1), grade 1 xerostomia (n=1), grade 1 gastritis (n=1) in cohort 2; and (3) grade 1 xerostomia (n=1) in cohort 3.
grade 3 hypotension [9]: 1
Allergy, Grade 3 [10]: 1 (17)
Dermatogic: Alopecia, Grade 2 [10]: 6 (100)
Dermatogic: Pruritis, Grade 2 [10]: 1 (17)
Gastrointestinal: Anorexia, Grade 1 [10]: 2 (33)
Gastrointestinal: Mucositis/Stomatitis, Grade 1 [10]: 2 (33)
Neurologic: Ocular, Grade 1 [10]: 1 (17)
Pain: Joint, Grade 2 [10]: 2 (33)
Pain: Muscle, Grade 2 [10]: 1 (17)
Thrombocytopenia, Grade 1 [10]: 2 (33)
Thrombocytopenia, Grade 2 [10]: 1 (17)
Thrombocytopenia, Grade 3 [10]: 1 (17)
Thrombocytopenia, Grade 4 [10]: 1 (17)
fatigue grade 3 [10]: 2 (33)
Allergy, Grade 3 [11]: 1 (33)
Dermatogic: Alopecia, Grade 1 [11]: 1 (33)
Dermatogic: Alopecia, Grade 2 [11]: 2 (67)
Gastrointestinal: Anorexia, Grade 1 [11]: 3 (100)
Gastrointestinal: Mucositis/Stomatitis, Grade 1 [11]: 1 (33)
Neurologic: Ocular, Grade 1 [11]: 1 (33)
Pain: Joint, Grade 2 [11]: 1 (33)
Thrombocytopenia, Grade 3 [11]: 1 (33)
clinically-significant pleural effusions, ascites, or cardiac issues (in vivo): not observed
other infections (in vivo): Two
patient deaths during the treatment phase (in vivo): no patient deaths
reports of infection associated with febrile neutropenia (in vivo): one
Grade 3 and 4 neutropenia and thrombocytopenia [1]: not observed
cases of grade 3 anemia [1]: 1
median PFS [1]: 2.1 months
responses [1]: no responses
incidence of effusions ([2]; 140 mg daily): 9%
severe pericardial effusions [2]: 1%
severe pleural effusions [2]: 5%
grade 3 to 4 hematologic toxicity ([2]; patients with solid tumors): 3–6%
best clinical response: PRs (solid tumors): 1–5%
best clinical response: stable disease (solid tumors): 5–23%
complete responses (CR) ([3]; 3/20): 15%
partial responses (PR) ([3]; 5/20): 25%
PFS6-month actuarial estimate ([3]; 95% confidence interval 69–100%): 86%
median OS ([3]; in vivo): 16.2 months
median PFS ([3]; in vivo): 7.8 months
T-HALF, Mean (SD) ([4]; dasatinib alone, Cycle 1 Day 15, N=14): 6.17 h and 6.17 (2.32) h
Tmax ([4]; human, plasma, oral): 2 h
AUC ([4]; human, plasma, oral, Geo Mean (%CV), dasatinib alone, Cycle 1 Day 15, N=14, dose-normalized to 100 mg): 478 ng·h/mL
AUC ([4]; human, plasma, oral, Geo Mean (%CV), paclitaxel and dasatinib, Cycle 2 Day 1, N=18, dose-normalized to 100 mg): 415 ng·h/mL
Cmax ([4]; human, plasma, oral, Cmax, Geo Mean (%CV), paclitaxel and dasatinib, Cycle 2 Day 1, N=18, dose-normalized to 100 mg): 78 ng/mL
inter-individual variability (%CV) for exposure ([4]; in vivo): 40–90%
T-HALF, Mean (SD) [4, 12]: 5.27 h and 5.27 (1.26) h
Tmax, Median (min, max) [4, 12]: 2.00 (0.50, 6.00) h
reduction of geometric mean AUC(0-T) [4, 13]: 11%
reduction of geometric mean AUC(TAU) [4, 13]: 13%
DLT observed ([5]; dasatinib 120 mg daily, paclitaxel 175 mg/m2, carboplatin AUC 6): no DLTs
DLT observed ([5]; dasatinib 150 mg daily, paclitaxel 175 mg/m2, carboplatin AUC 6, first cycle): no DLTs
grade 4 neutropenia at 2 weeks ([5]; first three patients of the dasatinib 150 mg daily cohort): all three patients
predefined MTD ([5]; in combination with paclitaxel and carboplatin, doses up to 150 mg daily): not reached
